We go through 5 compounds from patent US4686237A, “Erythro-(E)-7-[3'-C1-3 alkyl-1'-(3",5"-dimethylphenyl)naphth-2'-yl]-3,5-dihydroxyhept-6-enoic acids and derivatives thereof” (Sandoz Pharmaceuticals Corp., priority 1986, dated 1987).

Read-outs that look alike come from different tables or passages of the source.

One test concerns the target T1, HMG-CoA reductase (Rattus norvegicus, UniProt P51639).
T1 construct: In the assay the microsomes are the source of the HMG-CoA reductase enzyme; from tissue; host or cells: rat liver microsomes (male Sprague-Dawley rats)
T1 sequence (P51639 1-887): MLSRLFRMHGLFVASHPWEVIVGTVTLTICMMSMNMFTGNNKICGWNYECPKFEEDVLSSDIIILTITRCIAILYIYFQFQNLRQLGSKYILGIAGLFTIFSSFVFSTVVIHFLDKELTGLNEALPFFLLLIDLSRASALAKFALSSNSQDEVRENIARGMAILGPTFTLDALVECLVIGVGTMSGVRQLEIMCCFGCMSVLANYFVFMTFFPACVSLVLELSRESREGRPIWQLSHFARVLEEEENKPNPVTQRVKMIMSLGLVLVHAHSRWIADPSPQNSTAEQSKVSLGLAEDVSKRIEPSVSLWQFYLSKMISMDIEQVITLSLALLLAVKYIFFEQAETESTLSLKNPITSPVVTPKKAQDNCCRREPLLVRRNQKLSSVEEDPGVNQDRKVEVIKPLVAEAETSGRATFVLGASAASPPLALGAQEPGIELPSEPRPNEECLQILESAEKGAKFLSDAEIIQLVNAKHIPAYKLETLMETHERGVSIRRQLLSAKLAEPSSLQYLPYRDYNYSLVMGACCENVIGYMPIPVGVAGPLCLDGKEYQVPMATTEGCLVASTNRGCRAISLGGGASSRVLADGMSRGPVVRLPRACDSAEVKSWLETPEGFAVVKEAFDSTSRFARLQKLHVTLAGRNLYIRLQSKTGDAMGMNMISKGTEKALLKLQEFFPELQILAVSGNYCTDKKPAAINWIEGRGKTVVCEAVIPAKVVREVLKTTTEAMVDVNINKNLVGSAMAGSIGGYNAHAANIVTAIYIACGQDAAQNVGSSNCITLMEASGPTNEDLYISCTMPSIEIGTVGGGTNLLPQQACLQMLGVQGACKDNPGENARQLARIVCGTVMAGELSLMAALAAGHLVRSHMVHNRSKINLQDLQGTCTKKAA
In words: Test A. In Vitro Microsomal Assay of HMG-CoA Reductase Inhibition. Type of test: biochemical. As to conditions: rat liver microsomal suspensions, male Sprague-Dawley rats; read-out: IC50 (concentration of the test substance calculated to produce a 50% inhibition of HMG-CoA reductase activity). The protocol:
Test A. In Vitro Microsomal Assay of HMG-CoA Reductase Inhibition:
200 μl. aliquots (1.08-1.50 mg./ml.) of rat liver microsomal suspensions, freshly prepared from male Sprague-Dawley rats (150-225 g. body weight), in Buffer A with 10 mmol. dithiothreitol are incubated with 10 μl. of a solution of the test substance in dimethylacetamide and assayed for HMG-CoA reduotase activity as described in Ackerman et al., J. Lipid Res. 18, 408-413 (1977). In the assay the microsomes are the source of the HMG-CoA reductase enzyme which catalyzes the reduction of HMG-CoA to mevalonate. The assay employs a chloroform extraction to separate the product, [^14 C]mevalonolactone, formed by the HMG-CoA reductase reaction from the substrate, [^14 C]HMG-CoA. [^3 H]mevalonolactoneis added as an internal reference. Inhibition of HMG-CoA reductase is calculated from the decrease in specific activity ([^14 C/^3 H]mevalonate) of test groups compared to controls.
IC50 is the concentration of the test substance in
the assay system calculated to produce a 50%
inhibition of HMG-CoA reductase activity.

The next test deals with cholesterol biosynthesis. In words: Test C: In Vivo Cholesterol Biosynthesis Inhibition Test. Also noted: species or system rat. The note with it: for change in sterol synthesis (nCi of sterols formed) from test groups compared to controls: at 0.5 mg./kg.; for ED50: Rattus norvegicus, ip, read-out: ED50 (inhibition of sterol synthesis). The source says: Test C: In Vivo Cholesterol Biosynthesis Inhibition Test: In vivo studies utilize male Wistar Royal Hart rats weighing 150±20 g. which have been kept for 7-10 days on an altered light cycle (6:30 A.M.-6:30 P.M. dark) housed two per cage and fed powdered Purina Rat Chow and water ad libitum. […] Controls receive vehicle alone. […] Two hours after mid-dark, blood samples are obtained under sodium hexobarbitol anesthesia and the serum is separated by centrifugation. […] The [^14 C]digitonides are then counted by liquid scintillation spectrometry. […] Inhibition of sterol synthesis is calculated from the reduction in the nCi of sterols formed from test groups compared to controls.

The mark [1] stands for this setting: male Wistar Royal Hart rats, [1-14C]acetate i.p.

In the case of `CCOC(=O)C[C@H](O)C[C@H](O)/C=C/c1c(C)cc2ccccc2c1-c1cc(C)cc(C)c1` (relative stereo) [Example 1, Ethyl erythro-(E)-3,5-dihydroxy-7-[1'-(3",5"-dimethylphenyl)-3-methylnaphth-2'-yl]hept-6-enoate], the IC50 at HMG-CoA reductase is 0.08 µM. Moreover, the “change in sterol synthesis (nCi of sterols formed) from test groups compared to controls” value with cholesterol biosynthesis (setting [1]) is listed as -35%.
A word on the ED50: it is the dose that gives a 50% effect, or the effect in half of the subjects. In the case of `Cc1cc(C)cc(-c2c(/C=C/[C@@H](O)C[C@@H](O)CC(=O)O)c(C)cc3ccccc23)c1` (relative stereo) [Example 2, Sodium erythro-(E)-3,5-dihydroxy-7-[1'-(3",5"-dimethylphenyl)-3'-methylnaphth-2'-yl]hept-6-enoate], the IC50 on HMG-CoA reductase was 0.01 µM. In addition, in the test with cholesterol biosynthesis (setting [1]), the ED50 came to 0.3 mg/kg.
With `Cc1cc(C)cc(-c2c(/C=C/[C@@H]3C[C@@H](O)CC(=O)O3)c(C)cc3ccccc23)c1` (relative stereo) [Example 4, (E)-Trans-6-(2'-[1"-(3"',5"'-dimethylphenyl)-3"-methylnaphth-2"-yl]ethenyl)-4-hydroxy-3,4,5,6-tetrahydro-2H-pyran-2-one], the IC50 at HMG-CoA reductase is 0.33 µM. Further, in the test with cholesterol biosynthesis (setting [1]), the “change in sterol synthesis (nCi of sterols formed) from test groups compared to controls” value is recorded as -20%.
With `CC[C@H](C)C(=O)O[C@H]1CCC=C2C=C[C@H](C)[C@H](CC[C@@H]3C[C@@H](O)CC(=O)O3)[C@H]21` [Compactin, reference compound], the IC50 at HMG-CoA reductase was 0.77 µM. Besides, the 50% effective dose (ED50) in the test with cholesterol biosynthesis (setting [1]) was found to be 3.5 mg/kg.
As to `CC[C@H](C)C(=O)O[C@H]1C[C@@H](C)C=C2C=C[C@H](C)[C@H](CC[C@@H]3C[C@@H](O)CC(=O)O3)[C@H]21` [Mevinolin, reference compound], in the test on cholesterol biosynthesis, the 50% effective dose (ED50) was found to be 0.41 mg/kg.
